Legend:
[1] = system: CTL clone RDR173; test: IFN-γ ELISA: recognition of peptide-pulsed donor-derived EBV-LCL cells by CTL clone RDR173; type: cell-based, human; conditions: peptide pulsed on donor-derived EBV-LCL cells 2 h 37° C., coculture 24 h
Protocol: FIG. 5. CTL clone RDR173 recognizes the minimal epitope RPHAIRRPLAL. (a) Overlapping 9-, 10- and 11-mer peptides (1 μg/ml) were pulsed on donor-derived EBV-LCL cells for 2 h at 37° C. Peptide-pulsed EBV-LCLs were cocultured with CTL clone RDR173 for 24 h. Release of IFN-γ in the supernatant was measured by ELISA. (b) Increasing concentrations of the patient-derived peptide RPHAIRRPLAL (filled symbols) and the donor-derived peptide RPRAIRRPLAL (open symbols) were pulsed on donor-derived EBV-LCL cells for 2 h at 37° C. Peptide-pulsed EBV-LCLs were cocultured with CTL clone RDR173 for 24 h. Release of IFN-γ in the supernatant was measured by ELISA.
EBV-LCL cells were seeded at 3×10^4 cells/well together with 5×10^3 T cells in 96-well round bottom plate. For blocking studies, target cells were preincubated with antibodies against HLA class I (w6/32), HLA class II (PdV5.2) or HLA-B/C alleles (B1.23.2) for 30 min at room temperature. After 24 h incubation at 37° C., release of IFN-γ in the supernatant was measured using standard ELISA (Sanguin, Amsterdam, the Netherlands).

[2] = system: CTL clone RDR173; test: IFN-γ ELISA: recognition by CTL clone RDR173 of target cells pulsed with long peptide (processing and presentation); type: cell-based, human
Protocol: FIG. 7. Pulsing target cells with the 23-mer peptide leads to efficient processing and presentation LB-ECGF-1H epitope. CD 14+ cells were pulsed with titrated concentrations of the 11- and 23-mer hECGF-1 peptide for 4 h at 37° C. Target cells (3×10^4) were incubated with CTL clone RDR173 (10^4) for 24 h at 37° C. Release of IFN-γ in the supernatant was measured by ELISA.
FIG. 8. The LB-ECGF-1H epitope can be processed and presented by various target cells upon pulsing with the 23-mer peptide. HLA-B7-positive EBV-LCL cells (EBV), peripheral blood lymphocytes (PBL), phytohemagglutinin activated T cells (PHA blasts), CD14^+ cells (CD14) and CD19^+ cells (CD19) were pulsed with titrated concentrations of the 23-mer HECGF-1 peptide for 4 h at 37° C. Target cells (3×10^4) were incubated with CTL clone RDR173 (10^4) for 24 h at 37° C. Release of IFN-γ in the supernatant was measured by ELISA.
The 23-mer peptide […] containing the epitope (depicted in bold) was synthesized. Target cells were pulsed with titrated concentration of the long peptide for 4 hours at 37° C. and tested for recognition by CTL clone RDR173.

Row | Sequence | Recognition by CTL clone RDR173 (IFN-γ release) [1] | Recognition by CTL clone RDR173 (IFN-γ release) after pulsing with long peptide ([2]; CD14+ cells pulsed 4 h at 37° C., titrated concentrations, FIG. 7) | Processing and presentation of the epitope by various target cells ([2]; EBV-LCL, PHA blast and CD14+ cells pulsed 4 h at 37° C., FIG. 8)
1 | RPHAIRRPLAL [LB-ECGF-1H] | the epitope recognized by CTL clone RDR173 |  | 
2 | RPRAIRPLAL [LB-ECGF-1R, donor-derived peptide variant with Arg instead of His] | not recognized |  | 
3 | RPAGGARTLRPHAIRRPLALRRA [23-mer peptide] |  | efficient recognition | have the ability to process and present the epitope

Reference: patent publication US20090004162A1, “Hecgf-1 Related Polymorphisms and Applications Thereof” (priority 2005, published 2009)
